Data: US8318794B2, “Method of use of porphyrins in preparing a medicament for sonodynamic therapy and a method of sonodynamic therapy using porphyrins” (Science Group Pty. Ltd., priority 2008, dated 2012)

Columns and labels:
[1] = system: S-180 sarcoma; test: Animal Test B: SDT with lysine form of tin chlorophyllin in KM mouse S-180 sarcoma model; type: in vivo
Experimental: The sound-sensitive agent was the amino acid form of tin chlorophyllin, wherein M is Sn^4+, R1 is a residue of lysine, and R2 is a residue of lysine; the agent was obtained according to the previous process. The agent was dissolved in 0.1 mol/L phosphate buffer (pH 7.2-7.4) in darkness to give a final concentration of 2 mg/mL. The resultant solution was stored at 4° C. in a dark and quiet place.
The same as used in the above Animal Test A.
The same as established in the above Animal Test A.
After four days, touchable tumors with the average diameter of about 0.6 cm are developed subcutaneously at the right axillae of the mice. These tumor-bearing mice are divided randomly into the following groups: • 1) a blank control group (C); • 2) a ultrasound group (U), which are simply treated with ultrasound (having a frequency of 1.0 MHz and a power density of 1.2 W/cm^2) without injection of the sound-sensitive agent; • 3) a sound-sensitive agent group (S), which are simply injected with the sound-sensitive agent without treatment of ultrasound; • 4) a 0.3 group (SU1), which are injected with the sound-sensitive agent and subsequently treated with ultrasound having a frequency of 1.0 MHz and a power density of 0.3 W/cm^2; • 5) a 0.6 group (SU2), which are treated according to SU1 except using ultrasound having a power density of 0.6 W/cm^2; and • 6) a 1.2 group (SU3), which are treated according to SU1 except using ultrasound having a power density of 1.2 W/cm^2.
A depilatory cream is applied to remove fur on the areas to be irradiated. For the S, SU1, SU2 and SU3 groups, the sound-sensitive agent is injected intraperitoneally to each mouse at a dose of 20 mg/kg in a dark room. The mice are then fed in darkness.
(§1) 6 h after injection, each mouse of the SU1, SU2 and SU3 groups and the U group is partially immerged in water with only their head remaining above the water surface. An ultrasond probe was then placed into the water to irradiate the tumor area at the above parameters for 180 seconds. The mice of each group are fed in a conventional way.
The same as in the above Animal Test A.
15 days later, the mice are sacrificed by breaking the cervical vertebrae. The tumor tissues are separated and weighed on an electronic balance to calculate an average weight. Various groups are compared in terms of their respective average tumor weights at the 15th day.

[2] = system: right breast carcinoma, tumor metastasis in liver; test: Clinical case: SDT with lysine form of tin chlorophyllin; type: in vivo, human; conditions: patient
Experimental: A patient with right breast carcinoma. […] 9, 2007 (see FIG. 5). The lysine form of tin chlorophyllin as indicated in the above animal test B was dissolved in 0.1 mol/L phosphate buffer (pH 7.4) and given to the patient through lingual absorption every day for 2 days. Total dose of the lysine form of tin chlorophyllin was 60 mg. After 24 h, the red light light-emitting diode (LED) was irradiated to the body surface followed by local ultrasound irradiating of the tumour area at the intensities of 2.0 W/cm^2 for 20 minutes in a water bathtub every day for 3 days. One week later, the treatment was repeated. After 3 cycles of SDT treatment with the lysine form of tin chlorophyllin, CT-PET scan on Jan.

[3] = system: S-180 sarcoma; test: Animal Test A: SDT with dihydroporphin e4 in KM mouse S-180 sarcoma model; type: in vivo; conditions: for Average Tumor Weights: 12 days after treatment
Experimental: The sound-sensitive agent, dihydroporphin e4, is prepared according to Chinese Patent No. 99119878.6. The agent is dissolved in water for injection in darkness to give a final concentration of 4 mg/mL. The resultant solution is stored at 4° C. in darkness.
The animal tumor model used in this study was the KM mouse S-180 sarcoma, which is one of the tumor models appointed by the China Food and Drug Administration (CFDA) for new anticancer drug testing. Mouse S-180 sarcoma cell line was commercially available from the Cancer Hospital affiliated to Sun Yat-sen University. The inbred strain of KM mice (female, about 18-20 g body weight) was bred and tested in a laboratory consistent with national standards for new drug tests (the Animal Experimental Centre of Guangzhou Chinese Traditional Medical University). The mouse S-180 sarcoma cell line was injected into and raised in the abdominal cavity of the KM mouse and regenerated 3 times by passing malignant ascites from one mouse to another to confirm their growth is stable.
The ultrasound having a frequency of 1.0 MHz and an adjustable power density in the range of 0.1-2.2 W/cm^2 is applied. The apparatus can emit parallel wave, continuous wave or discontinuous wave.
The ascites with S-180 cell suspension was drawn out from the abdomen of the third passage mouse, and germ-free physiological saline solution was added. The final concentration of the cell suspension was 1×10^7 cells/mL. 0.1 mL of the cell suspension was injected subcutaneously in the right axilla of the mouse to grow a solid tumor.
Three days later, a small mass with the average diameter of about 0.4 cm was seen and palpated on every implanted mouse axilla. These tumor-bearing mice are divided randomly into the following groups with 5 mice in each group: • 1) a blank control group (C); • 2) a ultrasound group (U), which are simply treated with ultrasound (having a frequency of 1.0 MHz and a power density of 1.6 W/cm^2) without injection of the sound-sensitive agent; • 3) a sound-sensitive agent group (E), which are simply injected with the sound-sensitive agent without treatment of ultrasound; • 4) a 0.4 group (EU1), which are injected with the sound-sensitive agent and subsequently treated with ultrasound having a frequency of 1.0 MHz and a power density of 0.4 W/cm^2; • 5) a 0.8 group (EU2), which are treated according to EU1 except using ultrasound having a power density of 0.8 W/cm^2; and • 6) a 1.6 group (EU3), which are treated according to EU1 except using ultrasound having a power density of 1.6 W/cm^2.
To prepare the mice for the experiment, the fur on the tumor-bearing area of the mice was removed with depilatory cream. For the E, EU1, EU2 and EU3 groups, the sound-sensitive agent was injected into each mouse abdominal cavity in a dose of 40 mg/kg in a dark room. The mice are kept in darkness.
as §1, with “Six hours” for “6 h”, “after the” for “after”, “EU1, EU2” for “SU1, SU2”, “EU3” for “SU3”, “ultrasound” for “ultrasond”, “3 minutes.” for “180 seconds.”
After treatment with SDT, primary tumor size were estimated by measuring perpendicular minor dimension (W) and major dimension (L) using sliding calipers every one or two days. Approximate tumor volume was calculated by the formula: W^2L×½.
12 days later, the mice are sacrificed by breaking the cervical vertebrae. The tumor tissues are separated and weighed on an electronic balance to calculate an average weight. Various groups are compared in terms of their respective average tumor weight at the 12th day.
In comparing the tumor weights of various groups, statistic analysis is performed using the Student's t test.

Substance	effect on the tumor (FIG. 4) ([1]; SDT, ultrasound power density 0.3 W/cm^2-1.2 W/cm^2)	Average Tumor Weight ([1]; group S: 20 mg/kg intraperitoneally, no ultrasound, 15 days after treatment) [g]	average tumor volume profile (FIG. 3) ([1]; group S: 20 mg/kg, no ultrasound)	Average Tumor Weight ([1]; group SU1: 20 mg/kg intraperitoneally + ultrasound 1.0 MHz, 0.3 W/cm^2, 180 s, 6 h after injection, 15 days) [g]	Average Tumor Weight ([1]; group SU2: 20 mg/kg intraperitoneally + ultrasound 1.0 MHz, 0.6 W/cm^2, 180 s, 6 h after injection, 15 days) [g]	average tumor volume profile (FIG. 3) ([1]; group SU3: 20 mg/kg + ultrasound 1.2 W/cm^2)	Average Tumor Weight ([1]; group SU3: 20 mg/kg intraperitoneally + ultrasound 1.0 MHz, 1.2 W/cm^2, 180 s, 6 h after injection, 15 days) [g]	Blood Routine and chemistry tests ([2]; after 3 cycles of SDT)	symptom ([2]; after 3 cycles of SDT)	CT-PET scan of liver metastasis after 3 cycles of SDT ([2]; total dose 60 mg by lingual absorption, red LED light + ultrasound 2.0 W/cm^2, 20 min, daily for 3 days per cycle)	tumor growth (FIG. 2) ([3]; SDT, ultrasound power density 0.4 W/cm^2-1.6 W/cm^2)	Average Tumor Weights ([3]; group E: 40 mg/kg into abdominal cavity, no ultrasound) [g]	average tumor volume profile (FIG. 1) ([3]; group E: 40 mg/kg, no ultrasound)	Average Tumor Weights ([3]; group EU1: 40 mg/kg into abdominal cavity + ultrasound 1.0 MHz, 0.4 W/cm^2, 3 min, 6 h after injection) [g]	Average Tumor Weights ([3]; group EU2: 40 mg/kg into abdominal cavity + ultrasound 1.0 MHz, 0.8 W/cm^2, 3 min, 6 h after injection) [g]	average tumor volume profile (FIG. 1) ([3]; group EU3: 40 mg/kg + ultrasound 1.6 W/cm^2)	Average Tumor Weights ([3]; group EU3: 40 mg/kg into abdominal cavity + ultrasound 1.0 MHz, 1.6 W/cm^2, 3 min, 6 h after injection) [g]
lysine form of tin chlorophyllin	killing effect on the tumor	0.269 ± 0.331	slower increase compared to the blank control group	0.0435 ± 0.031	0.022 ± 0.008	hardly increased during the first six days after the SDT treatment, and began to decrease from the 7th day, and noticeably lower at the 15th day than before the test	0.011 ± 0.004	normal result	much improved	the tumor shrank and the tumor metabolic activity was inhibited	–	–	–	–	–	–	–
dihydroporphin e4	–	–	–	–	–	–	–	–	–	–	tumor growth is significantly inhibited	1.8800 ± 0.3114	slower increase compared with the blank control group	0.7600 ± 0.0894	0.5800 ± 0.0837	even slower tumor development	0.5200 ± 0.0837
